Measured values as given in patent publication US6737383B1, “Herbicidal oxadiazolidines” (priority 1999, dated 2004).

Experiments:
surinam grass = assay: Test B pre/postemergence surinam grass; assay type: in vivo, Brachiaria decumbens
Method in brief: (§1)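 Test chemicals in a non-phytotoxic solvent mixture with surfactant were sprayed preemergence onto planted seeds and postemergence onto plants 2 to 18 cm tall (1- to 4-leaf stage). After twelve to sixteen days in a greenhouse, injury was visually rated against untreated controls from 0 (no effect) to 10 (complete control).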

cocklebur = assay: Test B pre/postemergence cocklebur; assay type: in vivo, Xanthium strumarium
Method in brief: as §1

soybean = assay: Test B pre/postemergence soybean; assay type: in vivo, Glycine max
Method in brief: as §1

bamyardgrass = assay: Test B flood test barnyardgrass; assay type: in vivo, Echinochloa crus-galli
Method in brief: (§2)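 Flood test on plants grown to the 2-leaf stage; treated plants kept in greenhouse twelve to sixteen days, then visually rated against controls on a 0 (no effect) to 10 (complete control) scale.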

wheat = assay: Test B pre/postemergence wheat; assay type: in vivo, Triticum aestivum
Method in brief: as §1

rice = assay: Test B flood test rice; assay type: in vivo, Oryza sativa
Method in brief: as §2

rape = assay: Test B pre/postemergence rape; assay type: in vivo, Brassica napus
Method in brief: as §1

purple nutsedge = assay: Test B pre/postemergence purple nutsedge; assay type: in vivo, Cyperus rotundus
Method in brief: as §1

sugar beet = assay: Test B pre/postemergence sugar beet; assay type: in vivo, Beta vulgaris
Method in brief: as §1

giant foxtail = assay: Test B pre/postemergence giant foxtail; assay type: in vivo, Setaria faberii
Method in brief: as §1

duck salad = assay: Test B flood test duck salad; assay type: in vivo, Heteranthera limosa
Method in brief: as §2

crabgrass = assay: Test B pre/postemergence crabgrass; assay type: in vivo, Digitaria sanguinalis
Method in brief: as §1

blackgrass = assay: Test B pre/postemergence blackgrass; assay type: in vivo, Alopecurus myosuroides
Method in brief: as §1

smallflower flatsedge = assay: Test B flood test smallflower flatsedge; assay type: in vivo, Cyperus difformis
Method in brief: as §2

pigweed = assay: Test B pre/postemergence pigweed; assay type: in vivo, Amaranthus retroflexus
Method in brief: as §1

corn = assay: Test B pre/postemergence corn; assay type: in vivo, Zea mays
Method in brief: as §1

[1] = Postemergence, Rate 31 g/ha, visual rating, scale 0 to 10 (0 no effect, 10 complete control)
[2] = Preemergence, Rate 31 g/ha, visual rating, scale 0 to 10 (0 no effect, 10 complete control)
[3] = Preemergence, Rate 62 g/ha, scale of 0 to 10 where 0 is no effect and 10 is complete control
[4] = Rate 16 g/ha, Postemergence, scale 0 to 10, 0 no effect, 10 complete control
[5] = Rate 16 g/ha, Preemergence, scale 0 to 10, 0 no effect, 10 complete control
[6] = Rate 62 g/ha, Postemergence, scale 0 to 10 (0 no effect, 10 complete control)
[7] = Rate 125 g/ha, Postemergence, scale of 0 to 10 where 0 is no effect and 10 is complete control
[8] = Rate 125 g/ha, Preemergence, scale of 0 to 10 where 0 is no effect and 10 is complete control
[9] = Rate 16 g/ha, head printed Pre-emergence (flood test species), scale 0 to 10, 0 no effect, 10 complete control
[10] = Rate 31 g/ha, Pre-emergence section (flood test species), scale 0 to 10
[11] = Rate 62 g/ha, headed Pre-emergence (flood test species), scale 0 to 10 (0 no effect, 10 complete control)
[12] = Rate 125 g/ha, Pre-emergence, flood test species, scale 0 to 10 where 0 is no effect and 10 is complete control
[13] = Rate 250 g/ha, Pre-emergence, flood-test species, scale 0 to 10, 0 is no effect, 10 is complete control
[14] = Rate 500 g/ha, Pre-emergence, flood test species, scale 0 to 10 (0 no effect, 10 complete control)

CCCCCn1c(=O)on(C(=O)N(c2ccc(F)cc2)C(C)C)c1=O [Compound 290]
6: Barnyardgrass plant response rating (bamyardgrass; [10])
0: B. signalgrass plant response rating (surinam grass; [1]) | B. signalgrass plant response rating (surinam grass; [2]) | B. signalgrass plant response rating (surinam grass; [3]) | B. signalgrass plant response rating (surinam grass; [4]) | B. signalgrass plant response rating (surinam grass; [5]) | B. signalgrass plant response rating (surinam grass; [6]) | B. signalgrass plant response rating (surinam grass; [7]) | B. signalgrass plant response rating (surinam grass; [8]) | Cocklebur plant response rating (cocklebur; [1]) | Cocklebur plant response rating (cocklebur; [2]) | Cocklebur plant response rating (cocklebur; [3]) | Cocklebur plant response rating (cocklebur; [4]) | Cocklebur plant response rating (cocklebur; [5]) | Cocklebur plant response rating (cocklebur; [6]) | Cocklebur plant response rating (cocklebur; [7]) | Cocklebur plant response rating (cocklebur; [8]) | Soybean plant response rating (soybean; [2]) | Soybean plant response rating (soybean; [3]) | Soybean plant response rating (soybean; [5]) | Soybean plant response rating (soybean; [8]) | Barnyardgrass plant response rating (bamyardgrass; [9]) | Wheat plant response rating (wheat; [1]) | Wheat plant response rating (wheat; [2]) | Wheat plant response rating (wheat; [3]) | Wheat plant response rating (wheat; [4]) | Wheat plant response rating (wheat; [5]) | Wheat plant response rating (wheat; [6]) | Wheat plant response rating (wheat; [7]) | Wheat plant response rating (wheat; [8]) | Rice plant response rating (rice; [9]) | Rice plant response rating (rice; [10]) | Rice plant response rating (rice; [11]) | Rice plant response rating (rice; [12]) | Rice plant response rating (rice; [13]) | Rice plant response rating (rice; [14]) | Rape plant response rating (rape; [1]) | Rape plant response rating (rape; [2]) | Rape plant response rating (rape; [3]) | Rape plant response rating (rape; [4]) | Rape plant response rating (rape; [5]) | Rape plant response rating (rape; [6]) | Rape plant response rating (rape; [7]) | Rape plant response rating (rape; [8]) | Nutsedge plant response rating (purple nutsedge; [1]) | Nutsedge plant response rating (purple nutsedge; [2]) | Nutsedge plant response rating (purple nutsedge; [3]) | Nutsedge plant response rating (purple nutsedge; [4]) | Nutsedge plant response rating (purple nutsedge; [5]) | Nutsedge plant response rating (purple nutsedge; [6]) | Nutsedge plant response rating (purple nutsedge; [7]) | Sugarbeets plant response rating (sugar beet; [1]) | Sugarbeets plant response rating (sugar beet; [2]) | Sugarbeets plant response rating (sugar beet; [4]) | Sugarbeets plant response rating (sugar beet; [5]) | Sugarbeets plant response rating (sugar beet; [6]) | Sugarbeets plant response rating (sugar beet; [7]) | Giant foxtail plant response rating (giant foxtail; [1]) | Giant foxtail plant response rating (giant foxtail; [4]) | Giant foxtail plant response rating (giant foxtail; [6]) | Giant foxtail plant response rating (giant foxtail; [7]) | Ducksalad plant response rating (duck salad; [9]) | Ducksalad plant response rating (duck salad; [10]) | Ducksalad plant response rating (duck salad; [11]) | Ducksalad plant response rating (duck salad; [12]) | Ducksalad plant response rating (duck salad; [13]) | Ducksalad plant response rating (duck salad; [14]) | Crabgrass plant response rating (crabgrass; [1]) | Crabgrass plant response rating (crabgrass; [2]) | Crabgrass plant response rating (crabgrass; [4]) | Crabgrass plant response rating (crabgrass; [5]) | Crabgrass plant response rating (crabgrass; [6]) | Crabgrass plant response rating (crabgrass; [7]) | Blackgrass plant response rating (blackgrass; [1]) | Blackgrass plant response rating (blackgrass; [2]) | Blackgrass plant response rating (blackgrass; [4]) | Blackgrass plant response rating (blackgrass; [5]) | Blackgrass plant response rating (blackgrass; [6]) | Blackgrass plant response rating (blackgrass; [7]) | S. Flatsedge plant response rating (smallflower flatsedge; [9]) | S. Flatsedge plant response rating (smallflower flatsedge; [10]) | S. Flatsedge plant response rating (smallflower flatsedge; [11]) | S. Flatsedge plant response rating (smallflower flatsedge; [13]) | S. Flatsedge plant response rating (smallflower flatsedge; [14]) | Redroot pigweed plant response rating (pigweed; [1]) | Redroot pigweed plant response rating (pigweed; [2]) | Redroot pigweed plant response rating (pigweed; [4]) | Redroot pigweed plant response rating (pigweed; [5]) | Redroot pigweed plant response rating (pigweed; [6]) | Redroot pigweed plant response rating (pigweed; [7]) | Corn plant response rating (corn; [1]) | Corn plant response rating (corn; [2]) | Corn plant response rating (corn; [3]) | Corn plant response rating (corn; [4]) | Corn plant response rating (corn; [5]) | Corn plant response rating (corn; [6]) | Corn plant response rating (corn; [7]) | Corn plant response rating (corn; [8])
8: Giant foxtail plant response rating (giant foxtail; [3])
2: Soybean plant response rating (soybean; [6]) | Soybean plant response rating (soybean; [7]) | Sugarbeets plant response rating (sugar beet; [3]) | Giant foxtail plant response rating (giant foxtail; [2]) | Giant foxtail plant response rating (giant foxtail; [5]) | Blackgrass plant response rating (blackgrass; [3]) | Blackgrass plant response rating (blackgrass; [8]) | S. Flatsedge plant response rating (smallflower flatsedge; [12]) | Redroot pigweed plant response rating (pigweed; [3])
7: Redroot pigweed plant response rating (pigweed; [8])
4: Barnyardgrass plant response rating (bamyardgrass; [12]) | Barnyardgrass plant response rating (bamyardgrass; [13])
5: Barnyardgrass plant response rating (bamyardgrass; [14]) | Sugarbeets plant response rating (sugar beet; [8])
1: Soybean plant response rating (soybean; [1]) | Soybean plant response rating (soybean; [4]) | Crabgrass plant response rating (crabgrass; [3])
3: Barnyardgrass plant response rating (bamyardgrass; [11]) | Crabgrass plant response rating (crabgrass; [8])
9: Giant foxtail plant response rating (giant foxtail; [8])
